Results: patent US5723491A, “Fungicidal composition and method of controlling fungus infestation” (Novartis Corporation, priority 1994, dated 1998)
Several values for one entry are separate records, joined by “and”; a condition that tells them apart may be missing. Equal entries are not always repeated. Where two headings read alike, the source gives them in different places.

What was measured:
[1] = system: metalaxyl-sensitive strain of Plasmopara viticola; assay: Foliar spray on vine plantlets infected with Plasmopara viticola (two-leaf and three-leaf stage sprayings); format: in vivo
Procedure: Vine plantlets cv. "Gutedel" are grown under greenhouse conditions using one plant per pot (.O slashed.=6 cm) and sprayed with a spray broth prepared from an emulsion concentrate, either in the two-leaf stage or in the three-leaf stage. The following concentrations of active ingredient are used per batch of 4 plants: 200; 60; 20; 6; 2; 0.6; 0.2; 0.06 mg of a.i./liter. This dilution series is prepared in demineralized water immediately prior to application as a foliar spray. To exclude a gas-phase effect of the a.i. in the vicinity, all plants are separated from each other on the side using translucent plastic foils and kept in the dark for one day at 20°-22° C. and a relative humidity of approximately 100%.
Then, the entire leaf surface area of the plants is uniformly sprayed to drip point with a freshly prepared sporangia suspension (120 000/ml) of a metalaxyl-sensitive strain of Plasmopara viticola. The plants are then kept for 7 days under a 16 hour photoperiod with artificial daylight at 20°-22° C. and a relative humidity of approximately 100%. This is followed by evaluation of the infestation, separating three-leaf and two-leaf stage sprayings. The tables show in each case the average of 4 parallel sprayings.

[2] = Degradation behaviour in moderately heavy soil (silt/loam) under laboratory conditions; details: for degradation equation Ct, pre-exponential factor: first-order fit; for DT-50 (50% degradation) / DT-90 (90% degradation): from degradation curve FIG. 1
Procedure: Degradation Behaviour of Racemic Metalaxyl and R-metalaxyl in Moderately Heavy Soil
Two groups of 8 samples each of biologically active soil (silt/loam; loam: 13.9%; silt: 54.3%; sand: 31.8%; organic carbon: 2.1%; pH 7.3; biomass: 65.1 mg microbial carbon per 100 g soil; origin: Les Evouettes, Valais, Switzerland) are treated in parallel with racemic metalaxyl or R-metalaxyl, respectively, in each case in acetonic solution. The rate of application is 0.5 mg/kg of soil sample, which corresponds to a rate of application of 0.5 kg/hectare. The results are evaluated in duplicate after 0, 7, 14 and 21 days.

[3] = Degradation behaviour in sandy soil under laboratory conditions; set-up: degradation equation Ct, rate constant in exponent: unit: 1/day; details: sand; for degradation equation Ct, pre-exponential factor / degradation equation Ct, rate constant in exponent: first-order fit; for degradation equation Ct, rate constant in exponent: e^(-k*t); for DT-50 (50% degradation) / DT-90 (90% degradation): from degradation curve FIG. 2
Procedure: Degradation Behaviour of Racemic Metalaxyl and R-metalaxyl in Sandy Soil
Two groups of 16 samples each of biologically active soil (sandy soil; loam: 5.1%; silt: 11.4%; sand: 83.5%; organic carbon: 1.6%; pH 4; biomass: 51 mg microbial carbon/100 g soil; origin: Collombey, Valais, Switzerland)are treated in parallel with racemic metalaxyl or R-metalaxyl, respectively, in each case in acetonic solution. The rate of application is 0.5 mg/kg of soil sample, which corresponds to a rate of application of 0.5 kg/hectare. The results are evaluated in duplicate after 0, 1, 3, 7, 9, 15, 21 and 29 days.

[4] = cited from earlier work
[5] = system: Phytophthora palmivora; details: S-enantiomer versus R-enantiomer of metalaxyl; cited from earlier work
[6] = three-leaf stage, 0.06 mg of a.i./liter, untreated control 92
[7] = three-leaf stage, 0.2 mg of a.i./liter, untreated control 92
[8] = three-leaf stage, 0.6 mg of a.i./liter, untreated control 92
[9] = three-leaf stage, 2 mg of a.i./liter, untreated control 92
[10] = three-leaf stage, 6 mg of a.i./liter, untreated control 92
[11] = three-leaf stage, 20 mg of a.i./liter, untreated control 92
[12] = three-leaf stage, 60 mg of a.i./liter, untreated control 92
[13] = three-leaf stage, 200 mg of a.i./liter, untreated control 92
[14] = two-leaf stage, 0.06 mg of a.i./liter, untreated control 96
[15] = two-leaf stage, 0.2 mg of a.i./liter, untreated control 96
[16] = two-leaf stage, 0.6 mg of a.i./liter, untreated control 96
[17] = two-leaf stage, 2 mg of a.i./liter, untreated control 96
[18] = two-leaf stage, 6 mg of a.i./liter, untreated control 96
[19] = two-leaf stage, 20 mg of a.i./liter, untreated control 96
[20] = two-leaf stage, 60 mg of a.i./liter, untreated control 96
[21] = two-leaf stage, 200 mg of a.i./liter, untreated control 96
[22] = day 7, mean of duplicate, 10080 min
[23] = day 7, single sample, 10080 min
[24] = day 14, mean of duplicate, 20160 min
[25] = day 14, single sample, 20160 min
[26] = day 21, mean of duplicate, 30240 min
[27] = day 21, single sample, 30240 min
[28] = day 1, mean of duplicate, 1440 min
[29] = day 3, mean of duplicate, 4320 min
[30] = day 9, mean of duplicate, 12960 min
[31] = day 9, single sample, 12960 min
[32] = day 15, mean of duplicate, 21600 min
[33] = day 15, single sample, 21600 min
[34] = day 29, mean of duplicate, 41760 min
[35] = day 29, single sample, 41760 min

SMILES: COCC(=O)N(c1c(C)cccc1C)[C@H](C)C(=O)OC [R-metalaxyl]
- Foliar infestation [1, 6]: 93%
- Foliar infestation [1, 7]: 78%
- Foliar infestation [1, 8]: 0%
- Foliar infestation [1, 9]: 0%
- Foliar infestation [1, 10]: 0%
- Foliar infestation [1, 11]: 0%
- Foliar infestation [1, 12]: 0%
- Foliar infestation [1, 13]: 0%
- activity relative to racemic metalaxyl ([1]; three-leaf stage, up to 0.6 mg of a.i./liter): approximately 100 times
- Foliar infestation [1, 14]: 92%
- Foliar infestation [1, 15]: 97%
- Foliar infestation [1, 16]: 78%
- Foliar infestation [1, 17]: 4%
- Foliar infestation [1, 18]: 0%
- Foliar infestation [1, 19]: 0%
- Foliar infestation [1, 20]: 0%
- Foliar infestation [1, 21]: 0%
- activity relative to racemic metalaxyl ([1]; two-leaf stage, up to dilutions of 2 mg of a.i./liter): up to 30 times
- Compound remaining in soil (% of applied) ([2]; day 0, mean of duplicate): 96.28 % of applied
- Compound remaining in soil (% of applied) ([2]; day 0, single sample): 93.61 % of applied and 98.94 % of applied
- Compound remaining in soil (% of applied) [2, 22]: 25.23 % of applied
- Compound remaining in soil (% of applied) [2, 23]: 24.74 % of applied and 25.7 % of applied
- Compound remaining in soil (% of applied) [2, 24]: 9.85 % of applied
- Compound remaining in soil (% of applied) [2, 25]: 9.07 % of applied and 10.62 % of applied
- Compound remaining in soil (% of applied) [2, 26]: 7.69 % of applied
- Compound remaining in soil (% of applied) [2, 27]: 7.57 % of applied and 7.82 % of applied
- degradation equation Ct, pre-exponential factor [2]: 95.9
- DT-50 (50% degradation) [2]: 3.9 days
- DT-90 (90% degradation) [2]: 13.0 days
- Rate of degradation (% of applied), mean ([3]; day 0, mean of duplicate): 100.02 % of applied
- Rate of degradation (% of applied) ([3]; day 0, single sample): 100.32 % of applied and 99.72 % of applied
- Rate of degradation (% of applied), mean [3, 28]: 89.64 % of applied
- Rate of degradation (% of applied) ([3]; day 1, single sample, 1440 min): 89.16 % of applied and 90.13 % of applied
- Rate of degradation (% of applied), mean [3, 29]: 75.48 % of applied
- Rate of degradation (% of applied) ([3]; day 3, single sample, 4320 min): 76.96 % of applied and 74.01 % of applied
- Rate of degradation (% of applied), mean [3, 22]: 52.59 % of applied
- Rate of degradation (% of applied) [3, 23]: 52.59 % of applied
- Rate of degradation (% of applied), mean [3, 30]: 46.84 % of applied
- Rate of degradation (% of applied) [3, 31]: 47.22 % of applied and 46.45 % of applied
- Rate of degradation (% of applied), mean [3, 32]: 27.33 % of applied
- Rate of degradation (% of applied) [3, 33]: 24.77 % of applied and 29.89 % of applied
- Rate of degradation (% of applied), mean [3, 26]: 17.09 % of applied
- Rate of degradation (% of applied) [3, 27]: 17.12 % of applied and 17.05 % of applied
- Rate of degradation (% of applied), mean [3, 34]: 8.72 % of applied
- Rate of degradation (% of applied) [3, 35]: 8.82 % of applied and 8.62 % of applied
- degradation equation Ct, pre-exponential factor [3]: 98.54
- degradation equation Ct, rate constant in exponent [3]: 0.08548
- DT-50 (50% degradation) [3]: 8.1 days
- DT-90 (90% degradation) [3]: 26.9 days

SMILES: COC(=O)C(C)N(C(=O)Cc1ccccc1)c1c(C)cccc1C (racemic) [Benalaxyl, N-(2,6-dimethylphenyl)-N-(phenylacetyl)-DL-alanine methyl ester]
- DT-50 (hydrolytic half-life) ([4]; pH9.25): 86 days

SMILES: COCC(=O)N(c1c(C)cccc1C)[C@@H](C)C(=O)OC [S-enantiomer of metalaxyl]
- ED50 inhibitory value in nucleic acid synthesis relative to R-enantiomer (times more unfavorable) [5]: approximately fifty

SMILES: COCC(=O)N(c1c(C)cccc1C)C(C)C(=O)OC (racemic) [racemic metalaxyl, N-(2,6-dimethylphenyl)-N-(methoxyacetyl)-DL-alanine methyl ester]
- Foliar infestation [1, 6]: 92%
- Foliar infestation [1, 7]: 90%
- Foliar infestation [1, 8]: 96%
- Foliar infestation [1, 9]: 80%
- activity ([1]; three-leaf stage, 6 mg of a.i./liter (or less)): virtually no activity
- Foliar infestation [1, 10]: 85%
- Foliar infestation [1, 11]: 27%
- activity ([1]; three-leaf stage, 20 mg/liter): a more clear-cut activity is only discernible
- Foliar infestation [1, 12]: 0%
- Foliar infestation [1, 13]: 0%
- Foliar infestation [1, 14]: 96%
- Foliar infestation [1, 15]: 97%
- Foliar infestation [1, 16]: 100%
- Foliar infestation [1, 17]: 87%
- Foliar infestation [1, 18]: 76%
- Foliar infestation [1, 19]: 38%
- Foliar infestation [1, 20]: 0%
- Foliar infestation [1, 21]: 0%
- effect for practical purposes ([1]; two-leaf stage, below 20 mg of a.i./liter): without effect for practical purposes
- action against foliar infestation ([1]; two-leaf stage, below 60 mg of a.i./liter): does not result in a clear-cut action against foliar infestation
- Compound remaining in soil (% of applied) ([2]; day 0, mean of duplicate): 90.39 % of applied
- Compound remaining in soil (% of applied) ([2]; day 0, single sample): 90.41 % of applied and 90.36 % of applied
- Compound remaining in soil (% of applied) [2, 22]: 46.23 % of applied
- Compound remaining in soil (% of applied) [2, 23]: 47.28 % of applied and 45.17 % of applied
- Compound remaining in soil (% of applied) [2, 24]: 35.71 % of applied
- Compound remaining in soil (% of applied) [2, 25]: 35.88 % of applied and 35.54 % of applied
- Compound remaining in soil (% of applied) [2, 26]: 29.20 % of applied
- Compound remaining in soil (% of applied) [2, 27]: 29.34 % of applied and 29.06 % of applied
- degradation equation Ct, pre-exponential factor [2]: 86.66
- DT-50 (50% degradation) [2]: 10.8 days
- DT-90 (90% degradation) [2]: 35.7 days
- Rate of degradation (% of applied), mean ([3]; day 0, mean of duplicate): 97.78 % of applied
- Rate of degradation (% of applied) ([3]; day 0, single sample): 98.00 % of applied and 97.56 % of applied
- Rate of degradation (% of applied), mean [3, 28]: 87.82 % of applied
- Rate of degradation (% of applied) ([3]; day 1, single sample, 1440 min): 87.75 % of applied and 87.88 % of applied
- Rate of degradation (% of applied), mean [3, 29]: 80.01 % of applied
- Rate of degradation (% of applied) ([3]; day 3, single sample, 4320 min): 80.32 % of applied and 79.69 % of applied
- Rate of degradation (% of applied), mean [3, 22]: 65.01 % of applied
- Rate of degradation (% of applied) [3, 23]: 65.41 % of applied and 64.60 % of applied
- Rate of degradation (% of applied), mean [3, 30]: 56.26 % of applied
- Rate of degradation (% of applied) [3, 31]: 55.84 % of applied and 56.68 % of applied
- Rate of degradation (% of applied), mean [3, 32]: 42.54 % of applied
- Rate of degradation (% of applied) [3, 33]: 43.49 % of applied and 41.58 % of applied
- Rate of degradation (% of applied), mean [3, 26]: 31.99 % of applied
- Rate of degradation (% of applied) [3, 27]: 30.77 % of applied and 33.21 % of applied
- Rate of degradation (% of applied), mean [3, 34]: 28.49 % of applied
- Rate of degradation (% of applied) [3, 35]: 28.70 % of applied and 28.28 % of applied
- degradation equation Ct, pre-exponential factor [3]: 93.67
- degradation equation Ct, rate constant in exponent [3]: 0.05006
- DT-50 (50% degradation) [3]: 13.9 days
- DT-90 (90% degradation) [3]: 46.0 days
- DT-50 (hydrolytic half-life) ([4]; 20° C., pH1): > 200 days
- DT-50 (hydrolytic half-life) ([4]; 20° C., pH9): 115 days

SMILES: COC(=O)C(C)N(C(=O)c1ccco1)c1c(C)cccc1C (racemic) [Furalaxyl, N-(2,6-dimethylphenyl)-N-(2-furanylcarbonyl)-DL-alanine methyl ester]
- DT-50 (hydrolytic half-life) ([4]; 20° C., pH1): > 200 days
- DT-50 (hydrolytic half-life) ([4]; 20° C., pH9): > 200 days
